Data published in patent US12564589B2, “Methods for treating cancer, reducing side effects of cancer treatment, and preventing the recurrence of cancer” (Florida State University Research Foundation, Inc., priority 2024, dated 2026).

Legend:
[1] = system: H3.3KD cells; assay: Viability by flow cytometry (Live/Dead staining) after DNA damaging agents; format: cell-based, human
Protocol: FIGS. 1A-1G show replacement histone variant H3.3 is rapidly recruited to DNA damage sites and cells deficient in H3.3 accumulate endogenous damage, while also being hypersensitive to DNA damaging agents. FIG. 1A: Histone variant H3.3 is rapidly recruited to sites of laser induced DNA damage in living cells. HCT116 human colon carcinoma cells were transiently co-transfected with expression constructs for H3.3-mEmerald and RFP-PCNA. […] Percent recruitment was calculated by dividing the number of cells recruiting H3.3 by the number of cells recruiting PCNA in the same cells. n=number of cells analyzed. […] The percentage knockdown for each clone shown at the bottom of the lanes was quantitated by measuring fluorescence intensity of the H3.3 band relative to the signal from the H4 band on a Li-Cor Odyssey imager. […] The presence of endogenous damage in H3.3KD and control LUC cells was determined by Western blotting of whole cell extracts using the indicated antibodies. […] 48 hours after MMS treatment, the viability of the cells was scored by flow cytometry using the violet fluorescent Live/Dead cell staining kit (Invitrogen) following the manufacturer's instructions. […] Significant differences between treatments are indicated by p values determined using a t-test. […]

[2] = system: Budding yeast strains carrying H3G34R mutant; assay: Yeast viability by colony enumeration after genotoxic agents; format: cell-based; details: 90 minutes treatment
Protocol: FIGS. 8A-8G show deficiency of H3.3 in cells from multiple species results in accumulation of genomic instability and endogenous DNA damage, as well as hypersensitivity to DNA damaging agents. (FIG. 8A) Enhanced rate of micronuclei formation in H3.3KD cells. Micronuclei score was determined as described previously from 1000 LUC and H3.3KD cells. The difference between LUC and H3.3 was trending towards significance (p=0.12). (FIG. 8B) Increased incidence of lagging chromosomes during mitosis in H3.3KD cells. Quantitation of lagging chromosomes from 100 anaphases in LUC and H3.3KD cells is shown. (FIG. 8C) Flies deficient in H3.3 accumulate endogenous DNA damage. Western blot showing the levels of γH2A.v (the fly homolog of mammalian γH2A.X) in adult flies of the indicated genotypes: wild-type (WT; Oregon-R), heterozygous (het, with just one H3.3 allele) and rescue (res, which completely lacks H3.3, but its sterility is rescued by an extra copy of H3.2 driven by the H3.3B promoter). A sample from flies treated with 10 Gy IR is included as a positive control for γH2A.v signal. […] 100 third instar Drosophila larvae from WT and heterozygous (H3.3 Het) genotype carrying just one out of four alleles of H3.3 were exposed to either IR or ultra violet (UV) light and their development into adult flies was monitored for over two weeks. […] Viable flies remaining were scored daily for a week. […]

**Q.** For `NC(Cn1ccc(=O)c(O)c1)C(=O)O` (stereo not drawn) [Mimosine], which “sensitivity of H3.3 KD cells compared to control LUC cells” value ([1]; 0.5 mM Mimo) is on record?
**A.** The value was “very sensitive”.

**Q.** For `COS(C)(=O)=O` [MMS, methyl methane sulfonate], which “sensitivity of H3.3 KD cells compared to control LUC cells” value ([1]; 0.0175% MMS for 2 hours, viability 48 hours after) is on record?
**A.** The value was “very sensitive”.

**Q.** What about the “sensitivity of H3G34R yeast compared to wild-type” value [2] of the same compound?
**A.** The value was “hypersensitive”.
